Data on two compounds can be found in patent US5256548A, “Antiviral antibiotic BU-4344V” (Bristol-Myers Squibb Company, priority 1992, dated 1993).

≈ marks a conversion by molar mass, not a printed value. Some results are limits rather than exact numbers.

Data set [1] concerns Herpes Simplex Virus Type I. Put plainly: Plaque reduction assay, herpes simplex virus (Vero cells). Format: cell-based, herpes simplex virus type 1.
The test system of data set [2] is Vero cells. The following applies: dye-uptake assay, Vero cells without viral infection, 72 hours.
The subject of data set [3] is herpes simplex virus type 1 (KOS strain). The following applies: 72 h.
Data set [4] concerns Vero cells. Put plainly: Plaque reduction assay, minimal toxic dose (Vero cells). The format is cell-based. On the procedure: In vitro antiviral activity of BU-4344V was assessed using the herpes simplex virus type 1 (KOS strain) - Vero cell and influenza virus type A (Victoria strain) - Madin Darby canine kidney (MDCK) cell systems by the dye-uptake assay method [Antiviral Research, 3, 223-234 (1986)]. The cell suspension (200 μl ), containing 2×10^4 cells, was inoculated to each well of 96-well microplates and cultured at 37° C. for 48-72 hours under humidified 5% CO2 -95% air environment. The growth medium in each well was replaced with 250 μl of fresh medium (Eagle MEM without serum) containing BU-4344V at various doses, and then 50 μl medium containing approximately 10×TCID50 of the viruses was added to each well. For cytotoxicity tests, the same set of wells, without the viruses, were prepared. After 72 hours of incubation, the degree of inhibition of the viral-induced cytopathic effect and the drug-induced cytotoxicity were determined. […] The antiviral activity of BU-4344V was also determined using a conventional plaque reduction assay method.

Data set [5] deals with Influenza Virus Type A. Put plainly: Plaque reduction assay, influenza virus (MDCK cells). The format is cell-based. In general terms: In a plaque reduction assay, fewer plaques than in the control indicate reduced infectivity or spread.
For data set [6], the system named is influenza virus type A (Victoria strain). Kind of data set: Dye-uptake assay, inhibition of viral-induced cytopathic effect, influenza virus - MDCK cell system. Format: cell-based. The following applies: MDCK cells, 72 hours. For orientation: Damage to the host cells serves as the signal in cytopathic effect assays.

With `Nc1nc2c(ncn2COCCO)c(=O)[nH]1` [Acyclovir, reference compound], in data set [1], the ID50 was found to be 0.25 µg/mL (≈ 1.11 µM). For the same compound, in data set [2], the “TD50 (concentration exhibiting 50% cytotoxicity)” value is above 100 µg/mL. Further, the “ID50 (concentration showing 50% inhibition of the cytopathic effect)” value in data set [3] was determined as 0.2 µg/mL. Further, the “MTD (Minimal Toxic Dose)” value in data set [4] is above 100 µg/mL.
In data set [5], `NC(=O)c1ncn([C@@H]2O[C@H](CO)[C@@H](O)[C@H]2O)n1` [Ribavirin, reference compound] registered an ID50 of 3.8 µg/mL (≈ 15.6 µM). Further, in data set [6], the “ID50 (concentration showing 50% inhibition of the cytopathic effect)” value was found to be 10 µg/mL.
